Source: article PMC6591251, “Discovery of potent necroptosis inhibitors targeting RIPK1 kinase activity for the treatment of inflammatory disorder and cancer metastasis” (Cell Death & Disease, 2019)

Tests used:
Assay in all cases: RBC kinase panel
Type in all cases: biochemical
Conditions in all cases: ATP 10 μM, Data1, Data2
PLK3 = biological target: T1, PLK3 (Homo sapiens, UniProt Q9H4B4)
T1 construct: purchased Reaction Biology Corporation
Procedure, shortened: (§1)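 In this selectivity screen, one compound concentration (1 μM) was applied to 369 human kinases, with duplicates and 10 μM ATP in each reaction.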

PRKX = biological target: T2, PRKX (Homo sapiens, UniProt P51817)
T2 construct: purchased Reaction Biology Corporation
Procedure, shortened: as §1

PKCa = biological target: T3, PKCa (Homo sapiens, UniProt P17252)
T3 construct: purchased Reaction Biology Corporation
Procedure, shortened: as §1

PDK1/PDPK1 = biological target: T4, PDK1/PDPK1 (Homo sapiens, UniProt O15530)
T4 construct: purchased Reaction Biology Corporation
Procedure, shortened: as §1

NLK = biological target: T5, NLK (Homo sapiens, UniProt Q9UBE8)
T5 construct: purchased Reaction Biology Corporation
Procedure, shortened: as §1

CDK2/cyclin A = biological target: T6, CDK2/cyclin A (Homo sapiens, UniProt P24941)
T6 construct: purchased Reaction Biology Corporation
Procedure, shortened: as §1

MEKK1 = biological target: T7, MEKK1 (Homo sapiens, UniProt Q13233)
T7 construct: purchased Reaction Biology Corporation
Procedure, shortened: as §1

EPHA3 = biological target: T8, EPHA3 (Homo sapiens, UniProt P29320)
T8 construct: purchased Reaction Biology Corporation
Procedure, shortened: as §1

MYLK3 = biological target: T9, MYLK3 (Homo sapiens, UniProt Q32MK0)
T9 construct: purchased Reaction Biology Corporation
Procedure, shortened: as §1

IKKb/IKBKB = biological target: T10, IKKb/IKBKB (Homo sapiens, UniProt O14920)
T10 construct: purchased Reaction Biology Corporation
Procedure, shortened: as §1

ERK7/MAPK15 = biological target: T11, ERK7/MAPK15 (Homo sapiens, UniProt Q8TD08)
T11 construct: purchased Reaction Biology Corporation
Procedure, shortened: as §1

PDGFRb = biological target: T12, PDGFRb (Homo sapiens, UniProt P09619)
T12 construct: purchased Reaction Biology Corporation
Procedure, shortened: as §1

ULK2 = biological target: T13, ULK2 (Homo sapiens, UniProt Q8IYT8)
T13 construct: purchased Reaction Biology Corporation
Procedure, shortened: as §1

NEK11 = biological target: T14, NEK11 (Homo sapiens, UniProt Q8NG66)
T14 construct: purchased Reaction Biology Corporation
Procedure, shortened: as §1

PYK2 = biological target: T15, PYK2 (Homo sapiens, UniProt Q14289)
T15 construct: purchased Reaction Biology Corporation
Procedure, shortened: as §1

HIPK1 = biological target: T16, HIPK1 (Homo sapiens, UniProt Q86Z02)
T16 construct: purchased Reaction Biology Corporation
Procedure, shortened: as §1

DYRK1/DYRK1A = biological target: T17, DYRK1/DYRK1A (Homo sapiens, UniProt Q13627)
T17 construct: purchased Reaction Biology Corporation
Procedure, shortened: as §1

JAK2 = biological target: T18, JAK2 (Homo sapiens, UniProt O60674)
T18 construct: purchased Reaction Biology Corporation
Procedure, shortened: as §1

MEKK6 = biological target: T19, MEKK6 (Homo sapiens, UniProt O95382)
T19 construct: purchased Reaction Biology Corporation
Procedure, shortened: as §1

NEK6 = biological target: T20, NEK6 (Homo sapiens, UniProt Q9HC98)
T20 construct: purchased Reaction Biology Corporation
Procedure, shortened: as §1

PKD2/PRKD2 = biological target: T21, PKD2/PRKD2 (Homo sapiens, UniProt Q9BZL6)
T21 construct: purchased Reaction Biology Corporation
Procedure, shortened: as §1

CK1g2 = biological target: T22, CK1g2 (Homo sapiens, UniProt P78368)
T22 construct: purchased Reaction Biology Corporation
Procedure, shortened: as §1

LCK = biological target: T23, LCK (Homo sapiens, UniProt P06239)
T23 construct: purchased Reaction Biology Corporation
Procedure, shortened: as §1

CDK1/cyclin A = biological target: T24, CDK1/cyclin A (Homo sapiens, UniProt P06493)
T24 construct: purchased Reaction Biology Corporation
Procedure, shortened: as §1

FYN = biological target: T25, FYN (Homo sapiens, UniProt P06241)
T25 construct: purchased Reaction Biology Corporation
Procedure, shortened: as §1

FER = biological target: T26, FER (Homo sapiens, UniProt P16591)
T26 construct: purchased Reaction Biology Corporation
Procedure, shortened: as §1

MEKK2 = biological target: T27, MEKK2 (Homo sapiens, UniProt Q9Y2U5)
T27 construct: purchased Reaction Biology Corporation
Procedure, shortened: as §1

GRK7 = biological target: T28, GRK7 (Homo sapiens, UniProt Q8WTQ7)
T28 construct: purchased Reaction Biology Corporation
Procedure, shortened: as §1

PKCb2 = biological target: T29, PKCb2 (Homo sapiens, UniProt P05771)
T29 construct: purchased Reaction Biology Corporation
Procedure, shortened: as §1

STK38/NDR1 = biological target: T30, STK38/NDR1 (Homo sapiens, UniProt Q15208)
T30 construct: purchased Reaction Biology Corporation
Procedure, shortened: as §1

CDK4/cyclin D3 = biological target: T31, CDK4/cyclin D3 (Homo sapiens, UniProt P11802)
T31 construct: purchased Reaction Biology Corporation
Procedure, shortened: as §1

PKG2/PRKG2 = biological target: T32, PKG2/PRKG2 (Homo sapiens, UniProt Q13237)
T32 construct: purchased Reaction Biology Corporation
Procedure, shortened: as §1

MINK/MINK1 = biological target: T33, MINK/MINK1 (Homo sapiens, UniProt Q8N4C8)
T33 construct: purchased Reaction Biology Corporation
Procedure, shortened: as §1

T18 sequence (O60674 whole entry): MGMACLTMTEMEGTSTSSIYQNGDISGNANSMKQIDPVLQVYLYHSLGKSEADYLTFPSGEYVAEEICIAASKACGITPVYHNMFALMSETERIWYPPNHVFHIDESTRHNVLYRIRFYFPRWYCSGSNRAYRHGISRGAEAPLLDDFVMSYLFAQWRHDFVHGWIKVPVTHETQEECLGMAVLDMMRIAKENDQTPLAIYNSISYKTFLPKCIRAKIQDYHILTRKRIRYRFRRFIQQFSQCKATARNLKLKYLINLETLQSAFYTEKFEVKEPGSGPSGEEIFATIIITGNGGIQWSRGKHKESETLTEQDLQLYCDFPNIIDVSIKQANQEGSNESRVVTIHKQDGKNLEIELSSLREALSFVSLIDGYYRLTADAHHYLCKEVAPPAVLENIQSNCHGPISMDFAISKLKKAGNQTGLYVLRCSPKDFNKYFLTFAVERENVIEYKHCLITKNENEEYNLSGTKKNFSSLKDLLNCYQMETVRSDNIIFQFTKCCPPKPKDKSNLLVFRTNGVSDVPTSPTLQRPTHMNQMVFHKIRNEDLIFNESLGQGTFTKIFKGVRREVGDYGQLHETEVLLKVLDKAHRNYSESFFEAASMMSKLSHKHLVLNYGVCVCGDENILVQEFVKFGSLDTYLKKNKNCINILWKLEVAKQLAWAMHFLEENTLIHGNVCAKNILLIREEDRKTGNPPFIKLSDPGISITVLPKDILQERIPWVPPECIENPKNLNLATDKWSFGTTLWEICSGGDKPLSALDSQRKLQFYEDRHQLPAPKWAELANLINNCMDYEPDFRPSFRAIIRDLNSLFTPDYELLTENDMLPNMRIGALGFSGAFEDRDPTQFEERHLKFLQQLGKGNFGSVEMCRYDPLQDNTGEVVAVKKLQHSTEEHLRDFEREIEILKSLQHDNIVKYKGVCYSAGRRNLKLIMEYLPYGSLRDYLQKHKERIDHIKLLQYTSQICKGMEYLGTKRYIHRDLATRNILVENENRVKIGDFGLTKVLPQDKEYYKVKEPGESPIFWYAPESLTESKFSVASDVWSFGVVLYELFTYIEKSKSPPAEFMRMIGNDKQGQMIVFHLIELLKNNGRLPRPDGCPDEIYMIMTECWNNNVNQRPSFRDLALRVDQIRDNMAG
T16 sequence (Q86Z02 whole entry): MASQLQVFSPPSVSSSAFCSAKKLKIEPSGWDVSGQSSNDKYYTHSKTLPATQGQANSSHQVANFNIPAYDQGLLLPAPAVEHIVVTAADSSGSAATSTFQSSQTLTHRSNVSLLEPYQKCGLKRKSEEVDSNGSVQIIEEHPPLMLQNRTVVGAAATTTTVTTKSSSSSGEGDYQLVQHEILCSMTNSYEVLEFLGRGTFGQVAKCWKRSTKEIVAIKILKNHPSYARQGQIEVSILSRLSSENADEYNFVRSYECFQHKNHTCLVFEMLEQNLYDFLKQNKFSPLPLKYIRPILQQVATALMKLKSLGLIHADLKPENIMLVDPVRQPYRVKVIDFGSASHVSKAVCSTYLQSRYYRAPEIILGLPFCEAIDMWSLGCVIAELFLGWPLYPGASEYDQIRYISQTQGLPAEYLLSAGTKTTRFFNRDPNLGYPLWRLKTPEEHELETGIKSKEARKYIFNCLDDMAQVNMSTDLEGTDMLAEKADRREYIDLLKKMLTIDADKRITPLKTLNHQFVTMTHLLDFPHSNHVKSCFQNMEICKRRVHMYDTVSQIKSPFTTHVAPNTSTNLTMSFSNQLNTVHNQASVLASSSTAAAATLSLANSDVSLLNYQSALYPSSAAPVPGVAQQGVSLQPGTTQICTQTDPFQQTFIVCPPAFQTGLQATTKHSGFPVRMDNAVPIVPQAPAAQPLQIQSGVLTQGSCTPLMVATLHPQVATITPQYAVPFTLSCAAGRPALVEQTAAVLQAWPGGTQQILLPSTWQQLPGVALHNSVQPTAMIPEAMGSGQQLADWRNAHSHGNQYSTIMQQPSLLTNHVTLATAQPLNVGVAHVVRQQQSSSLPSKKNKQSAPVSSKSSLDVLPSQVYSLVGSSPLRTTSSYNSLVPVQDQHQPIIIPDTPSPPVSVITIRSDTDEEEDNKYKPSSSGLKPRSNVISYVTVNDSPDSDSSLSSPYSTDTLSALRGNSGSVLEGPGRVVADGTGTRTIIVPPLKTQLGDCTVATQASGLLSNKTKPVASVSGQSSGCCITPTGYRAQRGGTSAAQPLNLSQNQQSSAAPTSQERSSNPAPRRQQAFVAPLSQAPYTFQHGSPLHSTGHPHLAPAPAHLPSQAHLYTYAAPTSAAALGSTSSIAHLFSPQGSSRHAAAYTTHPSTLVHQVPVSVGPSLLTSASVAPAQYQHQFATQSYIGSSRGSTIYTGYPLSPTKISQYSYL
T22 sequence (P78368 whole entry): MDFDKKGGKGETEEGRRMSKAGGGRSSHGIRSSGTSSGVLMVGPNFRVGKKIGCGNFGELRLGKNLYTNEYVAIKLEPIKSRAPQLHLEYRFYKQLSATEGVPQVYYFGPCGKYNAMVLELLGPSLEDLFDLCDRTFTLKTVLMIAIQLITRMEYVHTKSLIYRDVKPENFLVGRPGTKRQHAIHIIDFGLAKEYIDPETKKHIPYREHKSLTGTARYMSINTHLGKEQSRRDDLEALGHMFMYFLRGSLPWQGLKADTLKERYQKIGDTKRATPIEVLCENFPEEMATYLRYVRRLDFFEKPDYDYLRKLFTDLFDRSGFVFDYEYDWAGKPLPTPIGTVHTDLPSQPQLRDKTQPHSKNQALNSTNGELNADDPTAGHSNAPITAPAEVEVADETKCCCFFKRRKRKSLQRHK
T7 sequence (Q13233 whole entry): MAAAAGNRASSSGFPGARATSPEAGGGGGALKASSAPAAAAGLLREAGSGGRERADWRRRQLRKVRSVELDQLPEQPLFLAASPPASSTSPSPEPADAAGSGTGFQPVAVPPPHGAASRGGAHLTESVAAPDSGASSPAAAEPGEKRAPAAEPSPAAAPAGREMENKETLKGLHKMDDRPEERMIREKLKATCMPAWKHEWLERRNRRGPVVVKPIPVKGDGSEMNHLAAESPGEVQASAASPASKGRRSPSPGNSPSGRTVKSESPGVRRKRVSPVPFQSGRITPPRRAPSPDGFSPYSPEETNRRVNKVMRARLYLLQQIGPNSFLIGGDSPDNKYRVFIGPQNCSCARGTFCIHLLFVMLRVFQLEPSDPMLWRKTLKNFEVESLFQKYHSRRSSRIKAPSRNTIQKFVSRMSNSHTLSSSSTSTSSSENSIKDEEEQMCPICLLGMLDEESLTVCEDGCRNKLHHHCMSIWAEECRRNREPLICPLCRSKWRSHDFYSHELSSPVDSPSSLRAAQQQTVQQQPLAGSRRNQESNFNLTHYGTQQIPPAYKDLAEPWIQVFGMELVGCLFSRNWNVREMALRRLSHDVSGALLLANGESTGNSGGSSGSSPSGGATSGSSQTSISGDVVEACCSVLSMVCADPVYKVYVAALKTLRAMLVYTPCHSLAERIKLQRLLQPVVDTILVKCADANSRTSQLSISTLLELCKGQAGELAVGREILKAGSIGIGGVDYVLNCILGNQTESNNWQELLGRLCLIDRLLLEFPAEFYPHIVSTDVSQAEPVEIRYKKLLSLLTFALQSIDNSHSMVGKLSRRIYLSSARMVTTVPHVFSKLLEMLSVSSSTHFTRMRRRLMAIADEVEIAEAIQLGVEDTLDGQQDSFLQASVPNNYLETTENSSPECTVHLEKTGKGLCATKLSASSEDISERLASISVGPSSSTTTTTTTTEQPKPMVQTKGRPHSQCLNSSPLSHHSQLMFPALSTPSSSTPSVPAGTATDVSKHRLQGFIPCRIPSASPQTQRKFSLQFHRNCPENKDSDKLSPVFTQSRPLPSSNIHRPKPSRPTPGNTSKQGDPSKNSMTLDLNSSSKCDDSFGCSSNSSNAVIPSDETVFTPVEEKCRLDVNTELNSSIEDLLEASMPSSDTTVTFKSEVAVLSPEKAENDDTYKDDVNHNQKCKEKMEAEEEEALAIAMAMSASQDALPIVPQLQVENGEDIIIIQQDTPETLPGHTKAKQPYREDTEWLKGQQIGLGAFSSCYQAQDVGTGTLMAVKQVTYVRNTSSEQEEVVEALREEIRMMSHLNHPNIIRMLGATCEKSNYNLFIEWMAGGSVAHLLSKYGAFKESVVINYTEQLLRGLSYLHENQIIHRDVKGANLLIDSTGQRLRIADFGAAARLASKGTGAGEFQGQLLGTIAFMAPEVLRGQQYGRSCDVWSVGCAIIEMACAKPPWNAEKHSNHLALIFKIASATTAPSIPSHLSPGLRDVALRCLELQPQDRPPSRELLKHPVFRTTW
T20 sequence (Q9HC98 whole entry): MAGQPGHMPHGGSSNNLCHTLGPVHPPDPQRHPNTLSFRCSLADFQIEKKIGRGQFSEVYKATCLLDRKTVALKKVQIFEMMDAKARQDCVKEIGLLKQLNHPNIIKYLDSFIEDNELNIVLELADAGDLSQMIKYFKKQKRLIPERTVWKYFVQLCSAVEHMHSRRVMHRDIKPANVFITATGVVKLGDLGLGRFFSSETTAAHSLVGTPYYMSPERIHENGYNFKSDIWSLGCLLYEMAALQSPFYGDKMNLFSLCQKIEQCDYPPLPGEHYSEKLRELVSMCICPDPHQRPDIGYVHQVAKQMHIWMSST
T23 sequence (P06239 whole entry): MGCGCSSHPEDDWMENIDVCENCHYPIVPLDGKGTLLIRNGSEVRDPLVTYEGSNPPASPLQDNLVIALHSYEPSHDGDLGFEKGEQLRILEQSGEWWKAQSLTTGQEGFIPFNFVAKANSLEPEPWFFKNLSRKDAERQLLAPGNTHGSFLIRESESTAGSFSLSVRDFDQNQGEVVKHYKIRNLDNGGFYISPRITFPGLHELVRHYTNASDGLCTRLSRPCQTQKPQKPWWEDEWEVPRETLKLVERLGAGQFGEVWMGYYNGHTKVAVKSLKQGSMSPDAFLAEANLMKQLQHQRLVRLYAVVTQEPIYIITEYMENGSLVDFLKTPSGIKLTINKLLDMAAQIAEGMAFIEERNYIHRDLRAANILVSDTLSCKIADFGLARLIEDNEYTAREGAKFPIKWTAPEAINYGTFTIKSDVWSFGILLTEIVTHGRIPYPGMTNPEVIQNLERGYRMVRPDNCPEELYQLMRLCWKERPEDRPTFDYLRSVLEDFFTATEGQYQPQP

CC(=O)Nc1nc2ccc(-c3cnc(C)c(NC(=O)OC4CCCCC4)c3)cc2s1 [PK68, cyclohexyl (5-(2-acetamidobenzo[d]thiazol-6-yl)-2-methylpyridin-3-yl)carbamate]
Activity% (PLK3; 1 μM): 104.01%
activity at 1 µM (PLK3): 105%
Activity% (PRKX; 1 μM): 103.46%
activity at 1 µM (PRKX): 104%
Activity% (PKCa; 1 μM): 98.94%
activity at 1 µM (PKCa): 99.5%
Activity% (PDK1/PDPK1; 1 μM): 90.43%
activity at 1 µM (PDK1/PDPK1): 92.7%
Activity% (NLK; 1 μM): 98.89%
activity at 1 µM (NLK): 103%
Activity% (CDK2/cyclin A; 1 μM): 97.94%
activity at 1 µM (CDK2/cyclin A): 98.5%
Activity% (MEKK1; 1 μM): 92.88%
activity at 1 µM (MEKK1): 95.3%
Activity% (EPHA3; 1 μM): 98.26%
activity at 1 µM (EPHA3): 102%
Activity% (MYLK3; 1 μM): 100.10%
activity at 1 µM (MYLK3): 101%
Activity% (IKKb/IKBKB; 1 μM): 107.97%
activity at 1 µM (IKKb/IKBKB): 109%
Activity% (ERK7/MAPK15; 1 μM): 96.80%
activity at 1 µM (ERK7/MAPK15): 99.3%
Activity% (PDGFRb; 1 μM): 75.13%
activity at 1 µM (PDGFRb): 76.7%
Activity% (ULK2; 1 μM): 101.80%
activity at 1 µM (ULK2): 102%
Activity% (NEK11; 1 μM): 81.13%
activity at 1 µM (NEK11): 85.4%
Activity% (PYK2; 1 μM): 95.64%
activity at 1 µM (PYK2): 95.9%
Activity% (HIPK1; 1 μM): 86.01%
activity at 1 µM (HIPK1): 87.4%
Activity% (DYRK1/DYRK1A; 1 μM): 95.93%
activity at 1 µM (DYRK1/DYRK1A): 97.4%
Activity% (JAK2; 1 μM): 96.04%
activity at 1 µM (JAK2): 98.2%
Activity% (MEKK6; 1 μM): 88.83%
activity at 1 µM (MEKK6): 91.3%
Activity% (NEK6; 1 μM): 93.63%
activity at 1 µM (NEK6): 98.4%
Activity% (PKD2/PRKD2; 1 μM): 90.63%
activity at 1 µM (PKD2/PRKD2): 93.9%
Activity% (CK1g2; 1 μM): 96.19%
activity at 1 µM (CK1g2): 97.8%
Activity% (LCK; 1 μM): 62.75%
activity at 1 µM (LCK): 62.9%
Activity% (CDK1/cyclin A; 1 μM): 96.92%
activity at 1 µM (CDK1/cyclin A): 97.2%
Activity% (FYN; 1 μM): 102.88%
activity at 1 µM (FYN): 104%
Activity% (FER; 1 μM): 100.70%
activity at 1 µM (FER): 102%
Activity% (MEKK2; 1 μM): 85.76%
activity at 1 µM (MEKK2): 89.8%
Activity% (GRK7; 1 μM): 95.94%
activity at 1 µM (GRK7): 96.5%
Activity% (PKCb2; 1 μM): 98.56%
activity at 1 µM (PKCb2): 100%
Activity% (STK38/NDR1; 1 μM): 96.05%
activity at 1 µM (STK38/NDR1): 98.9%
Activity% (CDK4/cyclin D3; 1 μM): 93.75%
activity at 1 µM (CDK4/cyclin D3): 94.2%
Activity% (PKG2/PRKG2; 1 μM): 106.03%
activity at 1 µM (PKG2/PRKG2): 108%
Activity% (MINK/MINK1; 1 μM): 88.92%
activity at 1 µM (MINK/MINK1): 90.2%
